These results are taken from US7902187B2, “6-substituted 2-(benzimidazolyl)purine and purinone derivatives for immunosuppression” (Wyeth LLC, priority 2006, dated 2011).

By IC50 is commonly meant the concentration needed to halve the response being measured.

Molecules are shown by their SMILES. Some results are limits rather than exact numbers.

The target of the first assay is T1, Jak3 (Homo sapiens, UniProt P52333).
T1 construct: A fragment encoding the catalytic domain of Jak3 (508aa to 1124aa) was ligated with GST at 5′ end; made in house; host or cells: Sf9 insect cells (baculovirus, pFastBac 1)
T1 sequence (P52333 508-1124): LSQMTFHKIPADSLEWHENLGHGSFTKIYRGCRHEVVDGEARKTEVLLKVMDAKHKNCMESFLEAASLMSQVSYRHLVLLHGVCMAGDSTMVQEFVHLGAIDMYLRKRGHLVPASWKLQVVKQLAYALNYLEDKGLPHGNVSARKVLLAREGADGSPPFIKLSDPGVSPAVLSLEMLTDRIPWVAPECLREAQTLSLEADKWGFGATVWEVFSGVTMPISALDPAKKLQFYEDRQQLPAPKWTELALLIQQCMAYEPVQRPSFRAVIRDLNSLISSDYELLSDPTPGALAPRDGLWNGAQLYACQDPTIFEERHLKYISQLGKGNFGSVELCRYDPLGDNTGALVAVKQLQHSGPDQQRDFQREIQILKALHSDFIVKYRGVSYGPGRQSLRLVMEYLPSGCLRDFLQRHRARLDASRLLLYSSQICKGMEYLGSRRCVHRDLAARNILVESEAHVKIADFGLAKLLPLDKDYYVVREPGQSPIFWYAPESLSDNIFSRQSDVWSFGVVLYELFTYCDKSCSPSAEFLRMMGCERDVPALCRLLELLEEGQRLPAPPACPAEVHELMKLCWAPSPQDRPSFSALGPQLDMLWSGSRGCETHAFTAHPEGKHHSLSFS
As to the kind of experiment: Jak3 Kinase Assay (HTRF). The assay is classed as biochemical. The settings on record: GST-Jak3 catalytic domain, 1 μM ATP, 60-min incubation; read-out: Jak3 Kinase, IC50 representation. As for the experimental part: Human Jak3 cDNA was amplified by PCR. A fragment encoding the catalytic domain of Jak3 (508aa to 1124aa) was ligated with GST at 5′ end. This fused GST-Jak3 DNA fragment was cloned into the EcoRI site of the donor plasmid pFastBac 1 (Life Technologies #10359-016). The transformation, transposition, and transfection of insect cells (Sf9) were performed according to the manufacture's instructions. The cell lysate containing recombinant GST-Jak3 was used in the kinase assay. Anti-GST antibody (10 μg/ml, Sigma #G1417) was coated onto a 384-well plate at 4° C. overnight. Cell lysate containing GST-Jak3 (1:100 dilution) was added to the anti-GST coated plates, and GST-Jak3 was captured by immobilized anti-GST antibody. Testing compounds and substrate mix (50 mM HEPES, pH 7, 0.5 mM Na3VO4, 25 mM MgCl2, 1 mM DTT, 0.005% BSA, 1 μM ATP, and 4.5 μg/ml biotinyl poly-Glu,Ala,Tyr) were added to the plate to initiate the reaction. After a 60-min incubation, the reaction was stopped by 4 mM EDTA, and phosphorylation of biotinyl poly-Glu,Ala,Tyr was detected using 17 μg/ml Cy5-streptavidin (Amersham, #PA92005) and 2.7 μg/ml Europium-conjugated anti-phosphotyrosine antibody (PerkinElmer #AD0069) using homogeneous time-resolved fluorescence (HTRF) technology.
With `N#Cc1ccc2ncn(-c3nc(N4CC(O)C4)c4[nH]c(=O)n(C5CCOCC5)c4n3)c2c1`, the IC50 was < 100 nM.
As to `Cn1c(=O)n([C@H]2CC[C@H](O)CC2)c2nc(-n3cnc4ccc(C#N)cc43)nc(N3CC(F)(F)C3)c21`, the IC50 was < 100 nM.
In the case of `NC(=O)C1CCN(c2nc(-n3cnc4ccc(Cl)cc43)nc3c2[nH]c(=O)n3C2CCOCC2)CC1`, the IC50 is < 100 nM.
Take `O=c1[nH]c2c(N3CC(O)C3)nc(-n3cnc4ccc(F)cc43)nc2n1[C@@H]1CCOc2c(F)cccc21`: the IC50 was < 100 nM.
Still for that read-out and setting: in the case of `Cn1c(=O)n([C@H]2CC[C@H](O)CC2)c2nc(-n3cnc4ccc(Cl)cc43)nc(N3CC[C@H](F)C3)c21` it was < 100 nM.
Still for that read-out and setting: as for `N#Cc1ccc2ncn(-c3nc(N4CCOCC4)c4[nH]c(=O)n(C5CCOCC5)c4n3)c2c1`, the figure is < 100 nM.
On the same count and under the same terms, in the case of `O=c1[nH]c2c(N3CC(O)C3)nc(-n3cnc4ccc(Cl)cc43)nc2n1C1CCOCC1` it was < 100 nM.
In the case of `O=c1[nH]c2c(N3CC(F)(F)C3)nc(-n3cnc4ccc(F)cc43)nc2n1[C@H]1CC[C@H](O)CC1`, the 50% inhibitory concentration (IC50) is < 100 nM.
Turning to `N#Cc1ccc2ncn(-c3nc(NCCCN)c4[nH]c(=O)n(C5CCOCC5)c4n3)c2c1`, the IC50 was < 100 nM.
In the case of `O=c1[nH]c2c(N3CC[C@H](F)C3)nc(-n3cnc4ccc(F)cc43)nc2n1C1CCOCC1`, the IC50 is < 100 nM.
Same read-out and setting: as for `Cn1c(=O)n([C@H]2CC[C@H](O)CC2)c2nc(-n3cnc4ccc(F)cc43)nc(N3CCC3)c21`, the figure is < 100 nM; as for `Cn1c(=O)n([C@H]2CC[C@H](O)CC2)c2nc(-n3cnc4ccc(Cl)cc43)nc(N3CC[C@@H](F)C3)c21`, < 100 nM.
On the same count and under the same terms, as for `N#Cc1ccc2ncn(-c3nc(N4CCCC(O)CC4)c4[nH]c(=O)n(C5CCOCC5)c4n3)c2c1` (centres unmarked), the figure is < 100 nM; as for `Cn1c(=O)n([C@H]2CC[C@H](O)CC2)c2nc(-n3cnc4ccc(F)cc43)nc(N3CC[C@@H](F)C3)c21`, < 100 nM; as for `NC(=O)C1CCN(c2nc(-n3cnc4ccc(F)cc43)nc3c2[nH]c(=O)n3C2CCOCC2)CC1`, < 100 nM.
On the same count and under the same terms, as for `CN1CCCN(c2nc(-n3cnc4ccc(Cl)cc43)nc3c2[nH]c(=O)n3C2CCOCC2)CC1`, the figure is < 100 nM.
As to `N#Cc1ccc2ncn(-c3nc(N4CCS(=O)(=O)CC4)c4[nH]c(=O)n(C5CCOCC5)c4n3)c2c1`, the half-maximal inhibitory concentration (IC50) is < 100 nM.
On the same count and under the same terms, in the case of `Cn1c(=O)n([C@H]2CC[C@H](O)CC2)c2nc(-n3cnc4ccc(F)cc43)nc(N3CCCC3)c21` it was < 100 nM; in that of `Cn1c(=O)n([C@H]2CC[C@H](O)CC2)c2nc(-n3cnc4ccc(Cl)cc43)nc(N3CC(F)(F)C3)c21`, < 100 nM; in that of `CC(C)(C)OC(=O)N1CC(Nc2nc(-n3cnc4ccc(Cl)cc43)nc3c2[nH]c(=O)n3C2CCOCC2)C1`, < 100 nM.
Regarding `O=c1[nH]c2c(NCCCO)nc(-n3cnc4ccc(Cl)cc43)nc2n1C1CCOCC1`, the IC50 is < 100 nM.
The same measure, in the same setting: in the case of `O=c1[nH]c2c(N3CC(O)C3)nc(-n3cnc4ccc(F)cc43)nc2n1C1CCOCC1` it was < 100 nM.
Still for that read-out and setting: in the case of `CN1CCC(Nc2nc(-n3cnc4ccc(C#N)cc43)nc3c2[nH]c(=O)n3C2CCOCC2)CC1` it was < 100 nM.
In the case of `Cn1c(=O)n([C@H]2CC[C@H](O)CC2)c2nc(-n3cnc4ccc(Cl)cc43)nc(N3CCC(F)CC3)c21`, the IC50 is < 100 nM.
Take `O=c1[nH]c2c(N3CCC(O)C3)nc(-n3cnc4ccc(F)cc43)nc2n1C1CCOCC1` (centres unmarked): the IC50 was < 100 nM.
Same read-out and setting: as for `O=c1[nH]c2c(N3CCCC3)nc(-n3cnc4ccc(F)cc43)nc2n1C1CCOCC1`, the figure is < 100 nM; as for `COCCNc1nc(-n2cnc3ccc(Cl)cc32)nc2c1[nH]c(=O)n2C1CCOCC1`, < 100 nM.
Take `Cn1c(=O)n([C@H]2CC[C@H](O)CC2)c2nc(-n3cnc4ccc(F)cc43)nc(N3CC(F)(F)C3)c21`: the IC50 was < 100 nM.
Turning to `O=c1[nH]c2c(N3CC[C@@H](F)C3)nc(-n3cnc4ccc(F)cc43)nc2n1C1CCOCC1`, the IC50 is < 100 nM.
With `O=c1[nH]c2c(N3CC(F)(F)C3)nc(-n3cnc4ccc(Cl)cc43)nc2n1C1CCOCC1`, the IC50 was < 100 nM.
On the same count and under the same terms, in the case of `CC(c1cccnc1)n1c(=O)[nH]c2c(N3CC(F)(F)C3)nc(-n3cnc4ccc(C#N)cc43)nc21` (centres unmarked) it was < 100 nM; in that of `N#Cc1ccc2ncn(-c3nc(-c4ccncc4)c4[nH]c(=O)n(C5CCOCC5)c4n3)c2c1`, < 100 nM.
Same read-out and setting: in the case of `CC(C)(C)OC(=O)NCCCNc1nc(-n2cnc3ccc(C#N)cc32)nc2c1[nH]c(=O)n2C1CCOCC1` it was < 100 nM; in that of `O=c1[nH]c2c(N3CCC(F)(F)C3)nc(-n3cnc4ccc(F)cc43)nc2n1C1CCOCC1`, < 100 nM.
Regarding `O=c1[nH]c2c(N3CC(F)(F)C3)nc(-n3cnc4ccc(F)cc43)nc2n1C1CCOCC1`, the IC50 is < 100 nM.
With `O=c1[nH]c2c(NC3CNC3)nc(-n3cnc4ccc(F)cc43)nc2n1C1CCOCC1`, the IC50 is < 100 nM.
With `O=c1[nH]c2c(N3CCC3)nc(-n3cnc4ccc(Cl)cc43)nc2n1C1CCOCC1`, the concentration for half-maximal inhibition (IC50) was < 100 nM.
As to `O=c1[nH]c2c(NCC3CNC3)nc(-n3cnc4ccc(F)cc43)nc2n1C1CCOCC1`, the IC50 was < 100 nM.
On the same count and under the same terms, as for `Cn1cc(-c2nc(-n3cnc4ccc(F)cc43)nc3c2[nH]c(=O)n3C2CCOCC2)cn1`, the figure is < 100 nM; as for `O=c1[nH]c2c(N3CCC3)nc(-n3cnc4ccc(F)cc43)nc2n1C1CCOCC1`, < 100 nM; as for `CCC(C)c1nc(-n2cnc3ccc(F)cc32)nc2c1[nH]c(=O)n2[C@@H]1CCOc2c(F)cccc21` (some centres unmarked), > 1000 nM.
Regarding `O=c1[nH]c2c(-c3ccccc3Cl)nc(-n3cnc4ccc(F)cc43)nc2n1C1CCOCC1`, the half-maximal inhibitory concentration (IC50) is > 1000 nM.
As for `C[C@@H](Nc1nc(-n2cnc3ccc(F)cc32)nc2c1[nH]c(=O)n2C1CCOCC1)c1ccccc1`, the IC50 is > 1000 nM.

Test system in another assay: not given
Assay: not given
The following applies: NOD mouse; cited from earlier work.
In the case of `COc1cc2ncnc(Nc3ccc(O)cc3)c2cc1OC` [JANEX-1], the “spontaneous autoimmune diabetes development” value is reported as “prevent spontaneous autoimmune diabetes development”.

Test system in another assay: not given
Assay: not given
The settings on record: in vivo; cited from earlier work.
`COc1cc2ncnc(Nc3ccc(O)cc3)c2cc1OC` [JANEX-1]: the “severity of GVHD” value is given as “attenuate the severity of GVHD”.

Another assay addresses T2, Jak3 (Homo sapiens, UniProt P52333).
T2 construct: host or cells: leukemia cells (not specified)
T2 sequence (P52333 1-1124): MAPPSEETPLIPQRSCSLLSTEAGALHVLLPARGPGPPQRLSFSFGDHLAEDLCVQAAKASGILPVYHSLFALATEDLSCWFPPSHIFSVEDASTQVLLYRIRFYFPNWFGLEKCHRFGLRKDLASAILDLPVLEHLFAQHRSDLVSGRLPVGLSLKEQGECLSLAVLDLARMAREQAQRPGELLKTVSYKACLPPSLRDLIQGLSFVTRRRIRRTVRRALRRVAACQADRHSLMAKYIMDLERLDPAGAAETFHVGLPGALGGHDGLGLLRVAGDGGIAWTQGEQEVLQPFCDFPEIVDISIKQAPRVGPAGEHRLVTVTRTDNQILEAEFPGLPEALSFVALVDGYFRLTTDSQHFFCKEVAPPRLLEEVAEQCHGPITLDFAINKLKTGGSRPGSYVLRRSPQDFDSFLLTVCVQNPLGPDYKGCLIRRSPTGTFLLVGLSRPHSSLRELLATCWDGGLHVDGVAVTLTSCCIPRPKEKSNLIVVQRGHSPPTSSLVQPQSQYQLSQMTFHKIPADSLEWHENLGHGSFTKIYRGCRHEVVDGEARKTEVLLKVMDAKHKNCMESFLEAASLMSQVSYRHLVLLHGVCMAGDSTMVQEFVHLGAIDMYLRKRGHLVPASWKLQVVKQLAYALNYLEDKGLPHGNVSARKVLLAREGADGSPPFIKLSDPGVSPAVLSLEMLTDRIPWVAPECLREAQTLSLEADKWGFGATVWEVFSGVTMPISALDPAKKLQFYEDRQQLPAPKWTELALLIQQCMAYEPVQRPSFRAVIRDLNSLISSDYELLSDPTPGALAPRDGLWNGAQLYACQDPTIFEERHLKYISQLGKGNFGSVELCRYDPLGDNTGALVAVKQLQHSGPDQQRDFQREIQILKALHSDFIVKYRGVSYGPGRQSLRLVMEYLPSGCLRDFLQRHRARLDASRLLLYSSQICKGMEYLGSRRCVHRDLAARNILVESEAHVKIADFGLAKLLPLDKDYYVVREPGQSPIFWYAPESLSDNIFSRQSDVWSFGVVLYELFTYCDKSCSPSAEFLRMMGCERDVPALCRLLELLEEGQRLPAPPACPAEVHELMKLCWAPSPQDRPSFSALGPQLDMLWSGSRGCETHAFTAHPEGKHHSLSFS
Assay: not given
The following applies: leukemia cells; cited from earlier work.
As for `COc1cc2ncnc(Nc3ccc(O)cc3)c2cc1OC` [JANEX-1], the “selectivity of Jak3 inhibition” value is listed as “selective inhibitors of Jak3”.
As for `COc1cc2ncnc(Nc3ccc(O)c(Br)c3)c2cc1OC` [WHI-P154], the “selectivity of Jak3 inhibition” value is “selective inhibitors of Jak3”.
